The text below walks through data of PubChem BioAssay (NCI).

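Method: 48-hour compound exposure of cells in 96-well plates, five concentrations, linear interpolation of endpoints. GI50 marks 50% less growth. At the TGI there is no net growth.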

Some test systems named below: SR leukemia; HOP-62 NSCLC; HCT-116 colon; SN12C renal; PC-3 prostate; IGROV1 ovarian; SK-MEL-5 melanoma; K-562 leukemia; U251 CNS; HS 578T breast.
Common to all, as to assay: inhibition of tumour cell growth, NCI panel, 48 h

On to `CCCCCCCC(=O)SCC/C=C/[C@@H]1CC(=O)NCc2cccc(n2)C2=N[C@@](C)(CS2)C(=O)N[C@@H](C(C)C)C(=O)O1`, for which the GI50 was 0.0623 µM in the experiment with SR leukemia; 0.0252 µM in the experiment on HOP-62 NSCLC; 0.0148 µM in the experiment with HCT-116 colon; 0.145 µM in the experiment on SN12C renal; 0.0437 µM in the experiment with PC-3 prostate; 0.0263 µM in the experiment with IGROV1 ovarian. Moreover, the GI50 in the experiment with SK-MEL-5 melanoma is 0.0271 µM; in the experiment with K-562 leukemia, 0.0829 µM; with U251 CNS, 0.0802 µM; with HS 578T breast, 0.0209 µM. Moreover, the TGI was > 33.3 µM in the experiment on SR leukemia; > 33.3 µM with HOP-62 NSCLC; 0.219 µM in the experiment with HCT-116 colon; > 33.3 µM in the experiment with SN12C renal; > 33.3 µM with PC-3 prostate; 0.525 µM in the experiment on IGROV1 ovarian. Moreover, the TGI in the experiment on SK-MEL-5 melanoma is 0.115 µM; in the experiment on K-562 leukemia, > 33.3 µM; in the experiment on U251 CNS it was 0.782 µM; with HS 578T breast, > 10.1 µM.

Regarding `Nc1ncnc2c1ncn2C1OC(CO)CC1O` (configuration not stated), the TGI in the experiment with SR leukemia is > 100 µM; in the experiment with HOP-62 NSCLC, > 100 µM; in the experiment with HCT-116 colon, > 100 µM; in the experiment on SN12C renal, 80.2 µM; in the experiment on PC-3 prostate, 40.4 µM; with IGROV1 ovarian, > 100 µM. The TGI with SK-MEL-5 melanoma is > 100 µM; in the experiment on K-562 leukemia, 42.8 µM; in the experiment on U251 CNS, > 100 µM; with HS 578T breast, 82.2 µM.

With `CN(Cc1ccccc1)c1ncnc2ccc(Br)cc12`, the GI50 with SR leukemia was 16.5 µM; in the experiment on HOP-62 NSCLC, 12.6 µM; in the experiment with HCT-116 colon, 11.1 µM; in the experiment with SN12C renal, 15.1 µM; in the experiment on PC-3 prostate, 11.7 µM; in the experiment on IGROV1 ovarian it was 8.17 µM. Also, the GI50 was 11.8 µM in the experiment with SK-MEL-5 melanoma, 4.4 µM in the experiment on K-562 leukemia, 11.9 µM with U251 CNS and 11.5 µM in the experiment with HS 578T breast. The TGI in the experiment with SR leukemia is 38 µM; in the experiment with HOP-62 NSCLC it was 25.9 µM; in the experiment on HCT-116 colon, 23.5 µM; in the experiment on SN12C renal, 29.6 µM; with PC-3 prostate, 33.4 µM; with IGROV1 ovarian it was > 100 µM. Further, the TGI is 24.1 µM in the experiment on SK-MEL-5 melanoma, 18.6 µM in the experiment on K-562 leukemia, 24.6 µM in the experiment on U251 CNS and 27.8 µM with HS 578T breast.

As to `CCC1CCC2C3CC=C4CC(OC(C)=O)C(N)CC4(C)C3CCC12C` (configuration not stated), the TGI in the experiment with SR leukemia turned out to be 6.07 µM; with HOP-62 NSCLC, 4.47 µM; in the experiment with HCT-116 colon, 6.14 µM; in the experiment with SN12C renal it was 9.87 µM; in the experiment with PC-3 prostate it was 7.97 µM; with IGROV1 ovarian, 18.2 µM. Moreover, the TGI was 3.7 µM in the experiment on SK-MEL-5 melanoma, 4.91 µM with K-562 leukemia, 3.68 µM with U251 CNS and 5.1 µM in the experiment with HS 578T breast.

With `O=c1[nH]ccc2nc(N3CCC(O)CC3)nc(Nc3ccc(N4CCOCC4)cc3)c12`, the GI50 is 3.14 µM with SR leukemia; 5.32 µM with HOP-62 NSCLC; 0.736 µM in the experiment with HCT-116 colon; 2.55 µM in the experiment with SN12C renal; > 100 µM in the experiment with PC-3 prostate; 0.584 µM in the experiment on IGROV1 ovarian. In addition, the GI50 with SK-MEL-5 melanoma was 3.69 µM; with K-562 leukemia it was > 100 µM; in the experiment with U251 CNS it was > 81 µM; in the experiment on HS 578T breast, 2.01 µM. In addition, the TGI with SR leukemia, in the experiment on HOP-62 NSCLC, with HCT-116 colon, in the experiment with SN12C renal, with PC-3 prostate and in the experiment with IGROV1 ovarian was > 100 µM in each case. The TGI in the experiment on SK-MEL-5 melanoma is > 50.8 µM; in the experiment with K-562 leukemia it was > 100 µM; with U251 CNS, > 100 µM; with HS 578T breast it was 9.03 µM.

`COc1ccc(-c2cnc(SCC(=O)c3c(C)n(C)n(-c4ccccc4)c3=O)n2-c2ccc(OC)cc2)cc1`: the GI50 with HOP-62 NSCLC is 28.9 µM; with HCT-116 colon, 20.3 µM; with SN12C renal, > 50 µM; in the experiment with PC-3 prostate, 40.1 µM; in the experiment on IGROV1 ovarian, > 50 µM; in the experiment with SK-MEL-5 melanoma it was 22.3 µM. Moreover, the GI50 is 33.2 µM in the experiment on K-562 leukemia, > 50 µM in the experiment on U251 CNS and 42.6 µM in the experiment with HS 578T breast. In addition, the TGI in the experiment on HOP-62 NSCLC, in the experiment with HCT-116 colon, with SN12C renal, in the experiment with PC-3 prostate, in the experiment with IGROV1 ovarian and in the experiment on SK-MEL-5 melanoma was > 50 µM throughout. For the same molecule, the TGI in the experiment with K-562 leukemia, in the experiment with U251 CNS and in the experiment on HS 578T breast was > 50 µM each time.

`Cc1ccc(C(=O)Nc2ccc(CN3CCN(C)CC3)c(C(F)(F)F)c2)cc1C#Cc1cnc(N)c2ccc(C#N)cc12`: the GI50 in the experiment on SR leukemia was 0.135 µM; with HOP-62 NSCLC, 1.7 µM; with HCT-116 colon it was 0.167 µM; in the experiment on SN12C renal, 0.0164 µM; in the experiment on PC-3 prostate it was 2.09 µM; in the experiment with IGROV1 ovarian it was 0.0188 µM. For the same molecule, the GI50 in the experiment on SK-MEL-5 melanoma is 0.331 µM; in the experiment with U251 CNS it was 0.393 µM; in the experiment on HS 578T breast it was 0.161 µM. The TGI with HOP-62 NSCLC is 22.9 µM; in the experiment with HCT-116 colon it was 7.3 µM; with SN12C renal, 3.07 µM; with PC-3 prostate, 13.8 µM; in the experiment with IGROV1 ovarian it was 9.55 µM; with SK-MEL-5 melanoma, 6.1 µM. Moreover, the TGI in the experiment on U251 CNS is 9.23 µM; with HS 578T breast, > 23.9 µM.

Consider `COc1ccc(-c2cc(=O)c3c(OC)c(O)c(OC)cc3o2)cc1`, for which the TGI in the experiment on SR leukemia is > 100 µM; with HOP-62 NSCLC, > 100 µM; in the experiment on HCT-116 colon, > 100 µM; in the experiment on SN12C renal, > 100 µM; in the experiment on IGROV1 ovarian it was > 100 µM; in the experiment with SK-MEL-5 melanoma it was 94.9 µM. Further, the TGI in the experiment on K-562 leukemia, in the experiment with U251 CNS and with HS 578T breast was > 100 µM each time.

`N=C(N)c1ccc(CS(=O)(=O)F)cc1`: the GI50 with HOP-62 NSCLC, with HCT-116 colon, in the experiment on SN12C renal, in the experiment with PC-3 prostate, with IGROV1 ovarian and in the experiment on SK-MEL-5 melanoma was > 100 µM in each case. The GI50 with K-562 leukemia, with U251 CNS and with HS 578T breast was > 100 µM each time. Further, the TGI in the experiment with HOP-62 NSCLC, in the experiment on HCT-116 colon, in the experiment on SN12C renal, in the experiment on PC-3 prostate, with IGROV1 ovarian and in the experiment with SK-MEL-5 melanoma was > 100 µM in each case. Further, the TGI with K-562 leukemia, in the experiment on U251 CNS and with HS 578T breast was > 100 µM each time.
